System: TLR7 signaling
Test: TNFα mRNA in BMDM stimulated with R848
Format: cell-based, mouse
Details: peptide 40 μM; R848 2.85 μM; 1 h
Procedure: The cDNA obtained was amplified with gene-specific primers for mouse HPRT, TNFα, IL-10, IL-12-p40, or IL-6 and Fast SYBR Green™ master mix (Applied Biosystemsm) as previously described.
CPDPs 9R34 and 9R11 were examined for inhibition of TLR1/2, TLR4, and TLR7 signaling. BMDMs were stimulated with Pam3C, E. coli LPS, or R848 and TNFαmRNA was measured 1 hour after stimulation. Mouse BMDM were treated with 40 μM of the indicated peptides for 30 minutes prior to stimulation with ODN 1668 (1 μM), E. coli LPS (0.1 μg/mL), R848 (2.85 μM), or P3C (0.33 μM). R848 and P3C were used to specifically activate TLR7 and TLR2 signaling, respectively. TNFαmRNA expression was measured 1 h after ODN 1668 challenge and normalized to the expression of HPRT. See results in FIG. 8A, FIG. 8B, and FIG. 8C. […] The statistical significance of changes was determined by a one-way ANOVA test; *p<0.01.

Q: Which “signaling induced by TLR7 agonist (TNFα mRNA)” value does the source give for RSFWAQLGMALTRD (Synthetic peptide 9R11) here?
A: did not inhibit
